The text below walks through data of patent US9573961B2, “Inhibitors of the renal outer medullary potassium channel” (Merck Sharp & Dohme Corp., priority 2012, dated 2017).

For assay [1], the target named is Kir1.1 (ROMK1) (Homo sapiens (Human), UniProt P48048). Put plainly: Electrophysiology Assay (whole cell voltage clamp, IonWorks Quattro). In kind it is cell-based. The settings on record: block during voltage step to 0 mV. On the procedure: Chinese hamster ovary cells stably expressing Kir1.1 channels were maintained in T-75 flasks in cell culture media in a humidified 10% CO2 incubator at 37° C. Prior to an experiment, Kir1.1 expression was induced by overnight incubation with 1 mM sodium butyrate. […] After centrifugation, the cell pellet was resuspended in approximately 4.0 mL of bath solution and placed in the IonWorks instrument. The intracellular solution consisted of (in mM): 80 K gluconate, 40 KCl, 20 KF, 3.2 MgCl2, 3 EGTA, 5 Hepes, pH 7.4. Electrical access to the cytoplasm was achieved by perforation in 0.13 mg/mL amphotericin B for 4 min. […] Voltage protocols and current recordings were performed using the IonWorks HT software/hardware system. Currents were sampled at 1 kHz. No correction for liquid junction potentials was used. The test pulse, consisting of a 100 ms step to 0 mV from a holding potential of −70 mV, followed by a 100 ms voltage ramp from −70 mV to +70 mV, was applied before and after a 6 min compound incubation period. Test compounds were prepared by diluting DMSO stock solutions into the bath solution at 3× the final concentration and placed in the instrument in 96-well polypropylene plates. Current amplitudes were measured using the IonWorks software.

In assay [2] the target is hROMK (hKir1.1) (Homo sapiens (Human), UniProt P48048). Put plainly: Thallium Flux Assay (ROMK channel functional thallium flux, FLIPR-Tetra). It counts as cell-based. The settings on record: read-out: Thallium Flux IC50. The protocol: Cell Culture Conditions—HEK293 cells stably expressing hROMK (hKir1.1) were grown at 37° C. in a 10% CO2 humidified incubator in complete growth media: Dulbecco's Modified Eagle Medium supplemented with non-essential amino acids, Penicillin/Streptomycin/Glutamine, G418 and FBS. At >80% confluency, aspirate the media from the flask and rinse with 10 mL Calcium/Magnesium-free PBS. […] To dislodge the cell, gently bang the side of the flask with your hand. Triturate the cells completely and then transfer the cells to 25 mL complete media. Centrifuge at 1,500 rpm for 6 min followed by resuspension in complete growth media and determine cell concentration. […] Under ideal growth conditions and appropriate tissue culture practices, this cell line is stable for 40-45 passages.
FluxOR Kit Components (Invitrogen F10017) • FluxOR™ Reagent (Component A) • FluxOR™ Assay Buffer (Component B)—10× Concentrate • PowerLoad™ Concentrate (Component C)—100× Concentrate • Probenecid (Component D)—Lyophilized sample is kept at −20° C. Water soluble, 100× after solubilization in 1 mL water. […] Store at 4° C. • Thallium sulfate (Tl2SO4) Concentrate (Component G)—50 mM in water. Store at 4° C. • DMSO (dimethyl sulfoxide, Component H)—1 mL (100%)
Can be stored at room temperature • Stimulant Buffer (prepared at 5× final concentration in 1× FluxOR™ Chloride-Free Buffer): 7.5 mM Thallium sulfate and 0.75 mM Potassium sulfate (to give a final assay concentration of 3 mM Thallium/0.3 mM Potassium). Store at 4° C. when not in use. If kept sterile, this solution is good for months.
Assay Protocol—The ROMK channel functional thallium flux assay is performed in 384 wells, using the FLIPR-Tetra instrument. HEK-hKir1.1 cells are seeded in Poly-D-Lysine microplates and kept in a 37° C.-10% CO2 incubator overnight. On the day of the experiment, the growth media is replaced with the FluxOR™ reagent loading buffer and incubated, protected from light, at ambient temperature (23-25° C.) for 90 min. The loading buffer is replaced with assay buffer±test compound followed by 30 min incubation at ambient temperature, where the Thallium/Potassium stimulant is added to the microplate.
Step Protocol • 1. Seed HEK-hKir1.1 cells (50 μl at 20,000 cells/well) in 384-well PDL coated Microplates • 2. Allow cells to adhere overnight in humidified 37° C./10% CO2 incubator • 3. Completely remove cell growth media from microplate and replace with 25 μl loading buffer • 4. Incubate Microplate at room temperature, protected form light, for 90 min • 5. Remove loading buffer and replace with 25 μl 1× Assay Buffer±test compound. • 6. Incubate microplate at room temperature, protected from light, for 30 min • 7. […] Excitation=400 nm, Emission=460 & 580 nm. Collect data for ˜10 min.
Data Calculation—The fluorescence intensity of wells containing 3 μM of a standard control ROMK inhibitor of the present invention is used to define the ROMK-sensitive component of thallium flux. Fluorescence in the presence of test compounds is normalized to control values to provide % fluorescence change.

[3] abbreviates: Chinese hamster ovary cells stably expressing Kir1.1, read-out: Electrophysiology IC50.
[4] abbreviates: Electrophysiology IC50, Chinese hamster ovary cells stably expressing Kir1.1.
Where [5] appears, read: HEK293 cells stably expressing hROMK (hKir1.1).

SMILES strings stand for the structures. Read-outs that look alike come from different tables or passages of the source.

hROMK (hKir1.1), sequence (P48048 whole entry): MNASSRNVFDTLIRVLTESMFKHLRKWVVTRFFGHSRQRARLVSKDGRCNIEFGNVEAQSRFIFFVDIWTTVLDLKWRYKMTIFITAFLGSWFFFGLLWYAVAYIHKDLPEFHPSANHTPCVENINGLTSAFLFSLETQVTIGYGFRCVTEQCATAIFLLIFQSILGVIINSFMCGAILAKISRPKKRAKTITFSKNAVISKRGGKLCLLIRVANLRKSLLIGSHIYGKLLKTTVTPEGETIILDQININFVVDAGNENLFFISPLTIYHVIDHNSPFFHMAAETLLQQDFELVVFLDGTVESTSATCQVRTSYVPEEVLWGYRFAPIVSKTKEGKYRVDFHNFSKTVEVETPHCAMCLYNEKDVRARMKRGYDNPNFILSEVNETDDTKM
Kir1.1 (ROMK1), sequence (P48048 whole entry): as above

For `O=C1OCCc2cc([C@@H]3CN4CCN(C(=O)Cc5ccc(-n6cnnn6)cc5)C[C@H]4CO3)ccc21` [Example 15, 6-[(3R,9aS)-8-{[4-(1H-tetrazol-1-yl)phenyl]acetyl}octahydropyrazino[2,1-c][1,4]oxazin-3-yl]-3,4-dihydro-1H-isochromen-1-one], the IC50 worked out at 80 nM in assay [1] (setting [3]) and 50 nM in assay [2].

`COc1cc([C@H]2CN3CCN(C(=O)Cc4ccc(-n5cnnn5)cc4)C[C@@H]3CO2)ccc1C#N` [Example 18, 2-methoxy-4-[(3S,9aR)-8-{[4-(1H-tetrazol-1-yl)phenyl]acetyl}octahydropyrazino[2,1-c][1,4]oxazin-3-yl]benzonitrile]: the IC50 in assay [1] (setting [4]) stood at 110 nM; in assay [2] (setting [5]) it was 250 nM.

`COc1cc([C@@H]2CN3CCN(C(=O)Cc4ccc(-n5cnnn5)cc4)C[C@@H]3CO2)ccc1C#N` [Example 19, 2-methoxy-4-[(3R,9aR)-8-{[4-(1H-tetrazol-1-yl)phenyl]acetyl}octahydropyrazino[2,1-c][1,4]oxazin-3-yl]benzonitrile]: the IC50 in assay [1] (setting [4]) was 70 nM; in assay [2] (setting [5]) it was 170 nM.

As to `O=C1OCc2c1ccc([C@@H]1CN3CCN(C(=O)Cc4ccc(-n5cnnn5)cc4)C[C@H]3CO1)c2Cl` [Example 20, 4-chloro-5-[(3R,9aS)-8-{[4-(1H-tetrazol-1-yl)phenyl]acetyl}octahydropyrazino[2,1-c][1,4]oxazin-3-yl]-2-benzofuran-1(3H)-one], the IC50 in assay [1] (setting [4]) is 60 nM; in assay [2] (setting [5]) it was 580 nM.

As to `O=C1OCc2c1ccc([C@H]1CN3CCN(C(=O)Cc4ccc(-n5cnnn5)cc4)C[C@H]3CO1)c2Cl` [Example 21, 4-chloro-5-[(3S,9aS)-8-{[4-(1H-tetrazol-1-yl)phenyl]acetyl}octahydropyrazino[2,1-c][1,4]oxazin-3-yl]-2-benzofuran-1(3H)-one], the IC50 in assay [1] (setting [4]) and in assay [2] (setting [5]) was 100 nM each time.

With `Cc1c([C@H]2CN3CCN(C(=O)Cc4ccc5c(c4)COC5=O)C[C@H]3CO2)ccc(F)c1C#N` [Example 23, 6-fluoro-2-methyl-3-{(3S,9aS)-8-[(1-oxo-1,3-dihydro-2-benzofuran-5-yl)acetyl]octahydropyrazino[2,1-c][1,4]oxazin-3-yl}benzonitrile], the IC50 in assay [1] (setting [4]) and in assay [2] was 70 nM in each case.

Regarding `Cc1c([C@@H]2CN3CCN(C(=O)Cc4ccc5c(c4)COC5=O)C[C@H]3CO2)ccc(F)c1C#N` [Example 24, 6-fluoro-2-methyl-3-{(3R,9aS)-8-[(1-oxo-1,3-dihydro-2-benzofuran-5-yl)acetyl]octahydropyrazino[2,1-c][1,4]oxazin-3-yl}benzonitrile], the 50% inhibitory concentration (IC50) in assay [1] (setting [4]) was determined as 80 nM; in assay [2], 60 nM.

For the molecule `COc1ccc([C@@H]2CN3CCN(C(=O)Cc4ccc(-n5cnnn5)cc4)C[C@H]3CO2)c(F)c1C#N` [Example 25, 2-fluoro-6-methoxy-3-[(3R,9aS)-8-{[4-(1H-tetrazol-1-yl)phenyl]acetyl}octahydropyrazino[2,1-c][1,4]oxazin-3-yl]benzonitrile], the IC50 in assay [1] (setting [3]) turned out to be 200 nM; in assay [2] (setting [5]), 150 nM.

As for `COc1ccc([C@@H]2CN3CCN(C(=O)Cc4ccc(-n5cnnn5)cc4)C[C@H]3CO2)c(C)c1C#N` [Example 26, 6-methoxy-2-methyl-3-[(3R,9aS)-8-{[4-(1H-tetrazol-1-yl)phenyl]acetyl}octahydropyrazino[2,1-c][1,4]oxazin-3-yl]benzonitrile], the results for the IC50 in assay [1] (setting [3]) and in assay [2] (setting [5]) were 260 nM and 140 nM, respectively.

Take `COc1cc(F)c([C@@H]2CN3CCN(C(=O)Cc4ccc(-n5cnnn5)cc4)C[C@H]3CO2)cc1C#N` [Example 27, 4-fluoro-2-methoxy-5-[(3R,9aS)-8-{[4-(1H-tetrazol-1-yl)phenyl]acetyl}octahydropyrazino[2,1-c][1,4]oxazin-3-yl]benzonitrile]: the figures for the IC50 in assay [1] (setting [4]) and in assay [2] (setting [5]) were 390 nM and 180 nM, respectively.

As to `COc1cc(CC(=O)N2CCN3C[C@H](c4ccc5c(c4)CCOC5=O)OC[C@H]3C2)ccc1C#N` [Example 28, 2-methoxy-4-{2-oxo-2-[(3S,9aR)-3-(1-oxo-3,4-dihydro-1H-isochromen-6-yl)hexahydropyrazino[2,1-c][1,4]oxazin-8(1H)-yl]ethyl}benzonitrile], the figures for the IC50 in assay [1] (setting [4]) and in assay [2] (setting [5]) were 130 nM and 330 nM, respectively.

Regarding `COc1cc(CC(=O)N2CCN3C[C@@H](c4ccc5c(c4)CCOC5=O)OC[C@@H]3C2)ccc1C#N` [Example 29, 2-methoxy-4-{2-oxo-2-[(3R,9aS)-3-(1-oxo-3,4-dihydro-1H-isochromen-6-yl)hexahydropyrazino[2,1-c][1,4]oxazin-8(1H)-yl]ethyl}benzonitrile], the IC50 in assay [1] (setting [4]) is 130 nM; in assay [2] (setting [5]), 300 nM.

As to `COc1cc(CC(=O)N2CCN3C[C@@H](c4ccc5c(c4)CCOC5=O)OC[C@@H]3C2)c(F)cc1C#N` [Example 30, 5-fluoro-2-methoxy-4-{2-oxo-2-[(3R,9aS)-3-(1-oxo-3,4-dihydro-1H-isochromen-6-yl)hexahydropyrazino[2,1-c][1,4]oxazin-8(1H)-yl]ethyl}benzonitrile], the IC50 worked out at 110 nM in assay [1] (setting [4]) and 100 nM in assay [2] (setting [5]).

For the molecule `COc1cc(CC(=O)N2CCN3C[C@H](c4ccc5c(c4)CCOC5=O)OC[C@H]3C2)c(F)cc1C#N` [Example 31, 5-fluoro-2-methoxy-4-{2-oxo-2-[(3S,9aR)-3-(1-oxo-3,4-dihydro-1H-isochromen-6-yl)hexahydropyrazino[2,1-c][1,4]oxazin-8(1H)-yl]ethyl}benzonitrile], the IC50 in assay [1] (setting [4]) was determined as 120 nM; in assay [2] (setting [5]), 570 nM.

`COc1c([C@@H]2CN3CCN(C(=O)Cc4ccc(-n5cnnn5)cc4)C[C@H]3CO2)ccc(F)c1C#N` [Example 32, 6-fluoro-2-methoxy-3-[(3R,9aS)-8-{[4-(1H-tetrazol-1-yl)phenyl]acetyl}octahydropyrazino[2,1-c][1,4]oxazin-3-yl]benzonitrile]: the IC50 in assay [1] (setting [4]) is 140 nM; in assay [2], 100 nM.

For `COc1c([C@H]2CN3CCN(C(=O)Cc4ccc(-n5cnnn5)cc4)C[C@H]3CO2)ccc(F)c1C#N` [Example 33, 6-fluoro-2-methoxy-3-[(3S,9aS)-8-{[4-(1H-tetrazol-1-yl)phenyl]acetyl}octahydropyrazino[2,1-c][1,4]oxazin-3-yl]benzonitrile], the values for the IC50 in assay [1] (setting [4]) and in assay [2] (setting [5]) were 130 nM and 110 nM, respectively.

As to `Cc1c([C@@H]2CN3CCN(C(=O)Cc4ccc(-n5cnnn5)cc4)C[C@H]3CO2)ccc(Cl)c1C#N` [Example 34, 6-chloro-2-methyl-3-[(3R,9aS)-8-{[4-(1H-tetrazol-1-yl)phenyl]acetyl}octahydropyrazino[2,1-c][1,4]oxazin-3-yl]benzonitrile], the IC50 in assay [1] (setting [4]) stood at 200 nM; in assay [2] (setting [5]) it was 190 nM.
